Laboratory results published in US6479531B1, “Gastrin and cholecystokinin receptor ligands” (James Black Foundation Limited, priority 1998, dated 2002).
Counter-ions that a name gives are not always drawn.

Key:
CCKA receptor = target: T1, CCKA receptor (Cavia porcellus, UniProt Q63931); assay: CCKA binding assay in guinea-pig pancreas membranes; settings: [125I]-CCK8(S) 200 pM, with 0.375 μM PD134,308, read-out: CCKA pKi (converted)
T1 construct: The pancreatata were removed from male guineau-pigs (200-300 g; Dunkin Hartley); from tissue; host or cells: pancreas membranes of male Dunkin Hartley guinea-pigs
T1 sequence (Q63931 1-430): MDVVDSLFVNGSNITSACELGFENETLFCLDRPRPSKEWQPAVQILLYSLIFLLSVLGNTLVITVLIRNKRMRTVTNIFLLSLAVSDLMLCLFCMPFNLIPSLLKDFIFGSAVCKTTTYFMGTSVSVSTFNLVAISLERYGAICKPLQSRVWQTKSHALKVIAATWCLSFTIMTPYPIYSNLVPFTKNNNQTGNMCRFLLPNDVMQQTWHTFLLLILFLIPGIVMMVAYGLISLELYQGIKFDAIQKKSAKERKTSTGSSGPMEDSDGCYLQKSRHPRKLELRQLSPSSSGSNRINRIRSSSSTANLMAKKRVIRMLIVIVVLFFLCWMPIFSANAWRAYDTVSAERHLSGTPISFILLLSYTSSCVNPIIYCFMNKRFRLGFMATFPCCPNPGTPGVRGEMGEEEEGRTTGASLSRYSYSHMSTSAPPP
Procedure: The compounds of certain examples were also tested in a CCKA binding assay as follows:
The pancreatata were removed from male guineau-pigs (200-300 g; Dunkin Hartley) and placed in ice-cold HEPES buffer (pH 7.2 @ 21±3° C.). The pancreatata were homogenised in 40 ml ice-cold HEPES buffer using a polytron (Brinkmann, PT10, setting 10) 4×1 second. The homogenate was centrifuged at 39,800 g for 15 min at 4° C. The supernatant was discarded and the pellet re-suspended using a Teflon-in-glass homogeniser in 20 volumes of fresh buffer and re-centrifuged as above. The final pellet was re-suspended using a Teflon-in-glass homogeniser to a tissue concentration of 1 mg.ml^−1 (original weight), and filtered through a 500 μm pore-size Nytex mesh.
The membranes (400 μl; containing 0.375 μM PD134,308) were incubated for 150 minutes at 21±3° C. in a final volume of 0.5 ml with HEPES buffer containing [^125I]-CCK8 (S) (50 μl; 200 pM) and competing compound. Total and non-specific binding of [^125I]-CCK8 (S) were defined using 50 μl of buffer and 50 μ of 100 nM L-364,718 respectively. The assay was terminated by rapid filtration through pre-soaked Whatman GF/B filters using a Brandell Cell Harvetser. The filters were washed (3×3 ml) with ice-cold 50 mM Tris HCl (pH 7.4 @ 4° C.) and bound radioactivity was determined by counting (1 min) in a gamma counter.

gastrin receptor = target: T2, gastrin receptor (Rattus norvegicus, UniProt P30553); assay: gastrin antagonist activity in immature rat stomach assay (pentagastrin dose-response, acid secretion); settings: isolated immature rat stomach, cumulative pentagastrin dose-response curves, read-out: Gastrin pKb (converted)
T2 construct: The stomach was excised and flushed with ca. 1 ml of unbuffered physiological saline solution; from tissue; host or cells: isolated whole stomach of immature rats (ca. 21 days old)
T2 sequence (P30553 1-452): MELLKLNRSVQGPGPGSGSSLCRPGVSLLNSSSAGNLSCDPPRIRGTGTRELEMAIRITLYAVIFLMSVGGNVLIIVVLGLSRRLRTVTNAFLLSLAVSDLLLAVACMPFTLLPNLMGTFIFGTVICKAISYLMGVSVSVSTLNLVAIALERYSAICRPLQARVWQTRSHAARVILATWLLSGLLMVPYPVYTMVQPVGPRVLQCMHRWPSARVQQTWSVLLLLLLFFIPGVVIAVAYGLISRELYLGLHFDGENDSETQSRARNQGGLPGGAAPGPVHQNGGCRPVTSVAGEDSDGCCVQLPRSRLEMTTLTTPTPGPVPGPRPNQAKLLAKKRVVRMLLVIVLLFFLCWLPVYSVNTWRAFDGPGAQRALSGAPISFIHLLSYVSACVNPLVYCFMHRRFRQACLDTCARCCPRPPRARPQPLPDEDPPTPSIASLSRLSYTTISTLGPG
Method in brief: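 Isolated, lumen-perfused stomach from immature rats (33-50 g, ca. 21 days) in a 37° organ bath with 3×10^−8 M 5-methylfurmethide, gassed 95% O2/5% CO2. Compound added serosally after 120 min stabilisation; cumulative pentagastrin dose-response curves begun 60 min later, acid secretion followed by perfusate pH.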

CCKB receptor = target: T3, CCKB receptor (Mus musculus, UniProt P56481); assay: CCKB receptor radioligand binding assay in mouse cortical membranes; settings: [125I]-CCK8(S) 200 pM, 150 min at 21±3°, read-out: CCKB pKi (converted)
T3 construct: The whole brains from male mice (CD1 22-25 g; Charles River) were removed; from tissue; host or cells: cerebral cortex membranes of male CD1 mice
T3 sequence (P56481 1-453): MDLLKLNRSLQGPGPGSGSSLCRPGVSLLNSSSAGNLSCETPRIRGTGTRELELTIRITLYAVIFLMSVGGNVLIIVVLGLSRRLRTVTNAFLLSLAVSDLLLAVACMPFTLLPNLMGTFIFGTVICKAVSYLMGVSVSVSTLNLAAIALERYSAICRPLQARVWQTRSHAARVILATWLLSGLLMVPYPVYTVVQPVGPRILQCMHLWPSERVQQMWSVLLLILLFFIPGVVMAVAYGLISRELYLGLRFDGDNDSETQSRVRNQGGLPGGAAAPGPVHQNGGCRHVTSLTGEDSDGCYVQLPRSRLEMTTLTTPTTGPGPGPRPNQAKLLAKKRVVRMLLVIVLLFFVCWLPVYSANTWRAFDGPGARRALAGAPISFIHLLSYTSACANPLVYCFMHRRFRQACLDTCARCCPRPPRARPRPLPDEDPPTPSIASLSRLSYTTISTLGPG
Method in brief: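 Bound radioactivity was gamma-counted after rapid GF/B filtration and cold 50 mM Tris-HCl (pH 7.4) washes. The tissue was cerebral cortex from male CD1 mice, prepared as twice-centrifuged membranes in pH 7.2 HEPES/NaCl/KCl/MgCl2/EDTA buffer with bacitracin at 20 mg/ml original wet weight.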

| Structure (SMILES) | Ki (CCKA receptor) | Kb (gastrin receptor) | Ki (CCKB receptor) |
| --- | --- | --- | --- |
| Cc1ccc(NC(=O)c2nc(C3CC4C=CC3C4)[nH]c2CCC23CC4CC(CC(C4)C2)C3)cc1C(=O)O (racemic) [Example 211, (±)-endo-5-{[5-(2-Adamantan-1-yl-ethyl)-2-bicyclo[2.2.1]hept-5-en-2-yl-1H-imidazole-4-carbonyl]-amino}-2-methyl-benzoic Acid] | 100 nM | 2.57 nM | 2.29 nM |
| O=C(O)c1cccc(NC(=O)c2[nH]c(C3CCCCC3)nc2CCC23CC4CC(CC(C4)C2)C3)c1 [Example 76, 3-{[5-(2-Adamantan-1-yl-ethyl)-2-cyclohexyl-1H-imidazole-4-carbonyl]-amino}-benzoic Acid] | 631 nM | 4.9 nM | 25.1 nM |
| CC1(c2nc(C(=O)Nc3ccc(F)c(C(=O)O)c3)c(CCC34CC5CC(CC(C5)C3)C4)[nH]2)CCCCC1 [Example 201, 5-{[5-(2-Adamantan-1-yl-ethyl)-2-(1-methyl-cyclohexyl)-1H-imidazole-4-carbonyl]-amino]-2-fluoro-benzoic Acid] |  | 4.9 nM | 8.71 nM |
| CC1=C(Cc2nc(C(=O)Nc3cccc(C(=O)O)c3)c(CCC34CC5CC(CC(C5)C3)C4)[nH]2)C(C)(C)CCC1 [Example 202, 3-{[5-(2-Adamantan-1-yl-ethyl)-2-(2,6,6-trimethyl-cyclohex-1-enylmethyl)-1H-imidazole-4-carbonyl]-amino)-benzoic Acid] |  | 28.8 nM | 112 nM |
| Cc1ccc(NC(=O)c2nc(C3CCCCC3)[nH]c2COC23CC4CC(CC(C4)C2)C3)cc1C(=O)O [Example 217, 5-{[5-(Adamantan-1-yloxymethyl)-2-cyclohexyl-1H-imidazole-4-carbonyl]-amino}-2-methyl-benzoic Acid] |  | 3.98 nM | 3.98 nM |
| O=C(O)Cc1cccc(NC(=O)c2nc(C3CCCCC3)[nH]c2COC23CC4CC(CC(C4)C2)C3)c1 [Example 219, (3-{[5-(Adamantan-1-yloxymethyl)-2-cyclohexyl-1H-imidazole-4-carbonyl]-amino}-phenyl)-acetic Acid] | 501 nM | 69.2 nM |  |
| Cc1ccc(NC(=O)c2nc(C3(C)CCCCC3)[nH]c2COC23CC4CC(CC(C4)C2)C3)cc1C(=O)O [Example 220, 5-([5-(Adamantan-1-yloxymethyl)-2-(1-methyl-cyclohexyl)-1H-imidazole-4-carbonyl]-amino}-2-methyl-benzoic Acid] |  | 0.468 nM | 2.95 nM |
| O=C(O)c1cccc(NC(=O)c2nc(C34CCC(CC3)CC4)[nH]c2COC23CC4CC(CC(C4)C2)C3)c1 [Example 221, 3-{[5-(Adamantan-1-yloxymethyl)-2-bicyclo[2.2.2]oct-1-yl-1H-imidazole-4-carbonyl]-amino}-benzoic Acid] | 794 nM | 0.708 nM |  |
| O=C(O)Cc1cccc(NC(=O)c2nc(C34CCC(CC3)CC4)[nH]c2COC23CC4CC(CC(C4)C2)C3)c1 [Example 224, (3-{[5-(Adamantan-1-yloxymethyl)-2-bicyclo[2.2.2]oct-1-yl-1H-imidazole-4-carbonyl]-amino}-phenyl)-acetic Acid] | 631 nM | 18.2 nM |  |
| O=C(O)c1cccc(NC(=O)c2nc([C@H]3CC4C=C[C@@H]3C4)[nH]c2COC23CC4CC(CC(C4)C2)C3)c1 [Example 235, endo-3-{[5-(Adamantan-1-yloxymethyl)-2-((1S,2S)-bicyclo[2.2.1]hept-5-en-2-yl)-1H-imidazole-4-carbonyl]-amino}-benzoic Acid] | 2510 nM | 3.02 nM |  |

Second part, the molecule after the results:

| Ki (CCKA receptor) | Kb (gastrin receptor) | Ki (CCKB receptor) | Structure (SMILES) |
| --- | --- | --- | --- |
| 794 nM | 1.05 nM |  | O=C(O)c1cccc(NC(=O)c2nc([C@@H]3CC4C=C[C@H]3C4)[nH]c2COC23CC4CC(CC(C4)C2)C3)c1 [Example 236] |
|  | 4680 nM | 60.3 nM | Cc1ccccc1-c1nc(C(=O)Nc2ccc(N)c(C(=O)O)c2)c(CCC23CC4CC(CC(C4)C2)C3)[nH]1 [Example 241, 5-{[5-(2-Adamantan-1-yl-ethyl)-2-o-tolyl-1H-imidazole-4-carbonyl]-amino}-2-amino-benzoic Acid Dihydrochloride] |
|  | 741 nM | 324 nM | Cc1ccccc1-c1nc(CCC23CC4CC(CC(C4)C2)C3)c(C(=O)Nc2ccc(N(C)C)c(C(=O)O)c2)[nH]1 [Example 242, 5-{[5-(2-Adamantan-1-yl-ethyl)-2-o-tolyl-1H-imidazole-4-carbonyl]-amino}-2-dimethylamino-benzoic Acid] |
|  | 240 nM | 6.46 nM | Cc1ccccc1-c1nc(C(=O)Nc2ccc(Cl)c(C(=O)O)c2)c(CCC23CC4CC(CC(C4)C2)C3)[nH]1 [Example 245, 5-{[5-(2-Adamantan-1-yl-ethyl)-2-o-tolyl-1H-imidazole-4-carbonyl]-amino}-2-chloro-benzoic Acid] |
|  | 832 nM | 3.63 nM | Cc1ccccc1-c1nc(C(=O)Nc2ccc(Br)c(C(=O)O)c2)c(CCC23CC4CC(CC(C4)C2)C3)[nH]1 [Example 246, 5-{[5-(2-Adamantan-1-yl-ethyl)-2-o-tolyl-1H-imidazole-4-carbonyl]-amino}-2-bromo-benzoic Acid] |
|  | 263 nM | 170 nM | Cc1ccc(C(=O)O)cc1NC(=O)c1nc(C2CCCCC2)[nH]c1CCC12CC3CC(CC(C3)C1)C2 [Example 252, 3-{[5-(2-Adamantan-1-yl-ethyl)-2-cyclohexyl-1H-imidazole-4-carbonyl]-amino}-4-methylbenzoic Acid] |
|  | 64.6 nM | 55 nM | Cc1c(NC(=O)c2nc(C3CCCCC3)[nH]c2CCC23CC4CC(CC(C4)C2)C3)cccc1C(=O)O [Example 253, 3-{[5-(2-Adamantan-1-yl-ethyl)-2-cyclohexyl-1H-imidazole-4-carbonyl]-amino}-2-methyl-benzoic Acid] |
|  | 11.7 nM | 12.6 nM | O=C(O)c1cc(NC(=O)c2nc(C3CCCCC3)[nH]c2CCC23CC4CC(CC(C4)C2)C3)ccc1F [Example 254, 5-{[5-(2-Adamantan-1-yl-ethyl)-2-cyclohexyl-1H-imidazole-4-carbonyl]-amino}-2-fluoro-benzoic Acid] |
